Values joined by “and” are separate entries in the source; they are usually repeats but may differ in a detail not shown here. Identical values can stand only once. Like-named read-outs stand apart in the source and are kept apart here.
Key:
[1] = test system: Herpes Simplex Virus type 1 (ATCC #VR-260); type: cell-based
[2] = test system: Chlorella sorokiniana; assay: Algal growth by percent transmittance at 750 nm; type: cell-based
Method: Two species of Chlorella were examined for growth—Chlorella sorokiniana a freshwater species and Chlorella minutissima a marine species. […] Growth was measured on day 0, 1, 2, 3, 4, 5, 6, 7, 8, 9 and 10. […] The following media were purchased from UTEX Culture Collection of Algae: Enriched Salt Water Medium and Volvox Dextrose Medium.
The algae were grown for 48 hours in the appropriate medium. The initial suspension was enumerated for each alga and is referred to as the starting inoculums. Chlorella sorokiniana was at 381 million cells per milliliter and Chlorella minutissima was at 19 million cells per milliliter. One milliliter of the algal solution was placed into 9 mLs of medium and mixed by vortexing. […] The tube of algae and MSM were incubated at room temperature with exposure to sunlight. […] Each dilution of MSM for each organism was set up in and analyzed in triplicate for each time interval measured. The samples were measured by percent transmittance on a UV/VIS spectrophotometer at wavelength 750 nm. The medium stock was tested for percent transmittance background levels at every time interval were measured. The lower percent transmittance indicated a higher growth factor.

## Methylsulfonylmethane [MSM]
[1]
  Average TCID50: 3.17log10 and 4.67log10 and 4.33log10 and 4.08log10 and 4.83log10 and 5.00log10 and 5.42log10
  CPE at dilution −8: 0000
  Response, % reduction: 78.620% and 99.320% and 99.790% and 87.980% and 93.240% and 98.800% and 97.860% and 61.980%
[1]; 1% MSM
  average log10 reduction: 0.67 log10
  average percent reduction: 78.62%
[1]; 2% MSM
  average log10 reduction: 0.84 log10
  average percent reduction: 85.55%
[1]; 3% MSM
  average log10 reduction: 1.00 log10
  average percent reduction: 90.00%
[1]; 4% MSM
  average percent reduction: 97.43%
[1]; Dose 5.312 mM (log dose 0.7252581)
  Response, % reduction: 32.390% and 61.980%
[1]; Dose 31.871 mM (log dose 1.503396)
  Response, % reduction: 96.200% and 93.240% and 61.980%
[1]; Dose 53.118 mM (log dose 1.725242)
  Response, % reduction: 87.980% and 93.240% and 98.800%
[1]; log(inhibitor) vs. normalized response, variable slope
  HillSlope, best-fit value: 1.523
[1]; log(inhibitor) vs. normalized response, variable slope, dose in mM
  LogIC50, best-fit value: 1.006
[2]; MSM 0.5%, Sample Day 0
  Growth, percent transmittance at 750 nm: 47.3%
[2]; MSM 0.5%, Sample Day 1
  Growth, percent transmittance at 750 nm: 41.8%
[2]; MSM 0.5%, Sample Day 2
  Growth, percent transmittance at 750 nm: 29.3%
[2]; MSM 0.5%, Sample Day 3
  Growth, percent transmittance at 750 nm: 29.6%
[2]; MSM 0.5%, Sample Day 4
  Growth, percent transmittance at 750 nm: 19.0%
[2]; MSM 0.5%, Sample Day 5
  Growth, percent transmittance at 750 nm: 12.4%
[2]; MSM 0.5%, Sample Day 6
  Growth, percent transmittance at 750 nm: 12.5%
[2]; MSM 0.5%, Sample Day 7
  Growth, percent transmittance at 750 nm: 11.9%
[2]; MSM 0.5%, Sample Day 8
  Growth, percent transmittance at 750 nm: 12.2%
[2]; MSM 0.5%, Sample Day 9
  Growth, percent transmittance at 750 nm: 7.5%
[2]; MSM 0.5%, Sample Day 10
  Growth, percent transmittance at 750 nm: 6.4%
[2]; MSM 1%, Sample Day 0
  Growth, percent transmittance at 750 nm: 48.7%
[2]; MSM 1%, Sample Day 1
  Growth, percent transmittance at 750 nm: 42.5%
[2]; MSM 1%, Sample Day 2
  Growth, percent transmittance at 750 nm: 37.5%
[2]; MSM 1%, Sample Day 3
  Growth, percent transmittance at 750 nm: 37.5%
[2]; MSM 1%, Sample Day 4
  Growth, percent transmittance at 750 nm: 17.3%
[2]; MSM 1%, Sample Day 5
  Growth, percent transmittance at 750 nm: 13.5%
[2]; MSM 1%, Sample Day 6
  Growth, percent transmittance at 750 nm: 13.0%
[2]; MSM 1%, Sample Day 7
  Growth, percent transmittance at 750 nm: 12.5%
[2]; MSM 1%, Sample Day 8
  Growth, percent transmittance at 750 nm: 12.4%
[2]; MSM 1%, Sample Day 9
  Growth, percent transmittance at 750 nm: 7.8%
[2]; MSM 1%, Sample Day 10
  Growth, percent transmittance at 750 nm: 6.6%
[2]; MSM 5%, Sample Day 0
  Growth, percent transmittance at 750 nm: 35.6%
[2]; MSM 5%, Sample Day 1
  Growth, percent transmittance at 750 nm: 31.2%
[2]; MSM 5%, Sample Day 2
  Growth, percent transmittance at 750 nm: 27.4%
[2]; MSM 5%, Sample Day 3
  Growth, percent transmittance at 750 nm: 21.4%
[2]; MSM 5%, Sample Day 4
  Growth, percent transmittance at 750 nm: 18.2%
[2]; MSM 5%, Sample Day 5
  Growth, percent transmittance at 750 nm: 15.7%
[2]; MSM 5%, Sample Day 6
  Growth, percent transmittance at 750 nm: 15.9%
[2]; MSM 5%, Sample Day 7
  Growth, percent transmittance at 750 nm: 16.3%
[2]; MSM 5%, Sample Day 8
  Growth, percent transmittance at 750 nm: 17.0%
[2]; MSM 5%, Sample Day 9
  Growth, percent transmittance at 750 nm: 13.7%
[2]; MSM 5%, Sample Day 10
  Growth, percent transmittance at 750 nm: 12.8%
[2]; MSM 10%, Sample Day 0
  Growth, percent transmittance at 750 nm: 31.2%
[2]; MSM 10%, Sample Day 1
  Growth, percent transmittance at 750 nm: 31.3%
[2]; MSM 10%, Sample Day 2
  Growth, percent transmittance at 750 nm: 29.7%
[2]; MSM 10%, Sample Day 3
  Growth, percent transmittance at 750 nm: 28.4%
[2]; MSM 10%, Sample Day 4
  Growth, percent transmittance at 750 nm: 29.0%
[2]; MSM 10%, Sample Day 5
  Growth, percent transmittance at 750 nm: 28.7%
[2]; MSM 10%, Sample Day 6
  Growth, percent transmittance at 750 nm: 27.1%
[2]; MSM 10%, Sample Day 7
  Growth, percent transmittance at 750 nm: 27.6%
[2]; MSM 10%, Sample Day 8
  Growth, percent transmittance at 750 nm: 27.1%
[2]; MSM 10%, Sample Day 9
  Growth, percent transmittance at 750 nm: 76.4%
[2]; MSM 10%, Sample Day 10
  Growth, percent transmittance at 750 nm: 93.8%
[2]; MSM 20%, Sample Day 0
  Growth, percent transmittance at 750 nm: 19.3%
[2]; MSM 20%, Sample Day 1
  Growth, percent transmittance at 750 nm: 21.9%
[2]; MSM 20%, Sample Day 2
  Growth, percent transmittance at 750 nm: 24.1%
[2]; MSM 20%, Sample Day 3
  Growth, percent transmittance at 750 nm: 28.1%
[2]; MSM 20%, Sample Day 4
  Growth, percent transmittance at 750 nm: 31.4%
[2]; MSM 20%, Sample Day 5
  Growth, percent transmittance at 750 nm: 33.6%
[2]; MSM 20%, Sample Day 6
  Growth, percent transmittance at 750 nm: 36.8%
[2]; MSM 20%, Sample Day 7
  Growth, percent transmittance at 750 nm: 40.6%
[2]; MSM 20%, Sample Day 8
  Growth, percent transmittance at 750 nm: 40.8%
[2]; MSM 20%, Sample Day 9
  Growth, percent transmittance at 750 nm: 84.8%
[2]; MSM 20%, Sample Day 10
  Growth, percent transmittance at 750 nm: 96.7%
[2]; MSM […], Sample Day 0
  Growth, percent transmittance at 750 nm: 40.6%
[2]; MSM […], Sample Day 1
  Growth, percent transmittance at 750 nm: 43.1%
[2]; MSM […], Sample Day 2
  Growth, percent transmittance at 750 nm: 44.9%
[2]; MSM […], Sample Day 3
  Growth, percent transmittance at 750 nm: 43.8%
